Laboratory results: PMC10447287, “Optimisation of Pharmaceutical Cocrystal Dissolution Performance through a Synergistic Precipitation Inhibition” (Pharmaceutical Research, 2023)

Columns and labels:
[1] = Particle size distribution of sieved powders; type: physicochemical; conditions: sieved particles < 250 μm
Experimental: All samples (i.e., FFA, FFA-NIC cocrystal and FFA-TP cocrystal) used in the dissolution tests were slightly ground by a mortar and pestle and sieved by a 60-mesh sieve (below 250 μm) to reduce the influence of particle size on the dissolution rates. The particle size distributions of the test samples were measured using a SYNC Analyzer (MICROTRAC Retsch GmbH, Hann, Germany). The particle size distributions (D10, D50, D90 and mean particle size) of the solid particles were compared. The data were analysed by the Microtrac FLEX software (12.0.0.1).

[2] = Dissolution tests of powder mixtures of FFA-NIC cocrystal with polymers in PBS pH 4.5 (non-sink); type: physicochemical; conditions: for incongruent indicator k(t) (molar FFA/NIC in solution): PBS pH 4.5, neat cocrystal; for FFA DPP: reference neat cocrystal in PBS pH 4.5
Experimental: Similarly, in vitro dissolution tests of the powder mixtures of 71.7 mg of the FFA-NIC cocrystals with an individual polymer or a combination in PBS pH 4.5 or PBS pH 6.8 were conducted in triplicate. […], 400 mg of PEG, […], corresponding to their predissolved concentrations used in Section "Dissolution Tests of FFA, the Neat FFA-TP Cocrystal or FFA-NIC Cocrystal Powders in DDW in the Absence and Presence of a Predissolved Polymer or a Combination".
The solid residues obtained from the experiments in PBS pH 4.5 were dried at room temperature and analysed by PXRD.
DPP was used to evaluate the dissolution profile of the test powders in comparison to a reference system, which is defined as,4 DPP=AUCC(t)-AUCCR(t)/AUCCR(t)×100% where AUCC(t) is the area under the curve (AUC) of a dissolution profile C(t) , indicating the amount of drug dissolved is maintained over the period of the dissolution time from 0 to t, and AUCCR(t) is the AUC of a reference dissolution profile CR(t) .
The solids were scanned by D2 phaser diffractometer (Bruker U.K. Limited, Coventry, UK) with […] radiation operating at voltage of 30 kV and current of 10 mA. The scanning angle ranged from 2°-40° of 2θ. The scanning time per step was 0.4 s. The scan step size was 0.02° of 2θ.

With `NC(=O)c1cccnc1.O=C(O)c1ccccc1Nc1cccc(C(F)(F)F)c1` [FFA-NIC cocrystal] the D10 [1] was 6.08 μm, the D50 [1] was 13.77 μm and the D90 [1] was 33.97 μm. The Mean particle size [1] was 17.63 μm, the “solid residues after dissolution tests (PXRD)” value ([2]; PBS pH 4.5, groups SLP (0.1 mg/mL) + PVP-VA (0.4 mg/mL) and SLP (0.2 mg/mL) + PVP-VA (0.8 mg/mL)) was “FFA-NIC cocrystals were also found in the solid residues” and the “incongruent indicator k(t) (molar FFA/NIC in solution)” value ([2]; at 5 min) was 0.03. For the same molecule, the “incongruent indicator k(t) (molar FFA/NIC in solution)” value ([2]; at 60 min) was 0.07, the “FFA DPP” value ([2]; PBS pH 4.5, powder mixture with PEG (1 mg/mL) + PVP-VA (0.2 mg/mL)) was 36% and the “FFA DPP” value ([2]; PBS pH 4.5, powder mixture with PEG (1 mg/mL)) was 11%. For the same molecule, the “FFA concentration at the end of the test” value ([2]; PBS pH 4.5, powder mixture with PVP-VA) was 17.38 µg/mL, the “FFA DPP” value ([2]; PBS pH 4.5, powder mixture with PVP-VA (0.2 mg/mL)) was 92% and the “maximum supersaturated FFA concentration” value ([2]; PBS pH 4.5, powder mixture with PVP-VA, at 60 min) was 19.65 µg/mL. The “FFA DPP” value ([2]; PBS pH 4.5, powder mixture with SLP (0.1 mg/mL) + PVP-VA (0.4 mg/mL)) was 150%, the “FFA DPP” value ([2]; PBS pH 4.5, powder mixture with SLP (0.2 mg/mL) + PVP-VA (0.2 mg/mL)) was 159% and the “FFA DPP” value ([2]; PBS pH 4.5, powder mixture with SLP (0.2 mg/mL) + PVP-VA (0.4 mg/mL)) was 179%. The “FFA DPP” value ([2]; PBS pH 4.5, powder mixture with SLP (0.2 mg/mL) + PVP-VA (0.8 mg/mL)) was 204%, the “FFA DPP” value ([2]; PBS pH 4.5, powder mixture with SLP (0.2 mg/mL)) was 2% and the “solid residues after dissolution tests (PXRD)” value ([2]; all dissolution tests in PBS pH 4.5) was “FFA III solids were crystallised”.
